{"source": "patent US11198869B2", "about": "“Angelman syndrome antisense treatment” (The Texas A&M University System, priority 2017, dated 2021)", "test_system": "UBE3A-AS", "experiment": "UBE3A-AS steady state RNA dose response in Angelman syndrome iPSC-derived neurons", "format": "cell-based, human", "conditions": "for IC50: six days following treatment, 10-point dose curve, read-out: potency (IC50), UBE3A-AS", "method": "The steady state RNA levels of target transcripts were measured using TaqMan quantitative reverse-transcription PCR (qRT-PCR) assays. Total reaction volume was 10 uL, including 2 μl of cDNA, 1× Gene Expression Master mix (4369016, Thermo Fisher Scientific, Waltham, Mass.), and 1× TaqMan primer assay (Thermo Fisher Scientific). Cycling conditions were 2 minutes at 50° C., 10 minutes at 95° C., and 40 cycles of 15 seconds at 95° C. and 1 minute at 60° C., with readings taken at the 60° C. step of every cycle. Reactions were run on a BIO-RAD T1000 CFX96 thermocycler (Bio-Rad Laboratories, Hercules Calif.), with internal control (PPIA, Hs99999904_m1, Thermo Fisher Scientific) and target [UBE3A-AS, Hs01372957_m1; SNORD116-11, Hs04275268_gH; SNORD115, Hs04275288_gH; IPW, Hs03455409_s1; SNORD109A/B, AP47WVR (Thermo Fisher Scientific); UBE3A: forward […] (SEQ ID NO:500); reverse: […] (SEQ ID NO:501); and, probe: […] (SEQ ID NO:502)] reactions performed together. Data was retrieved and analyzed with the BIORAD CFX Maestro software (Bio-Rad Laboratories). Samples with internal control Cq values ≥30 were filtered. Quality of data was visually inspected to identify discrepancies between technical and/or plate replicates. Measurements for inferential statistics and descriptive statistics consist of ΔΔCq values (2^−ΔΔCq=2^−(Cq[target]−Cq[internal control])−(Cq[target]−Cq[internal control])).\nThe potencies of […] and ASO-4.4.PS.L were then examined in iPSC derived-neurons from an Angelman syndrome patient with a maternal derived deletion of the 15q11-q13 region. Induced pluripotent stem cells were differentiated into neurons and then treated with a 10-point ½ log dose response curve of ASO-6.1.PO-1.O and ASO-4.4.PS.L [1 nM, 3 nM, 10 nM, 30 nM, 100 nM, 300 nM, 1 μM, 3 μM, 10 μM, and 30 μM (n=3)]. Six days following treatment, the steady state RNA levels of UBE3A-AS were measured and dose response curves were fitted as described above (FIG. 9A). […] The Emax values were similar (30 μM: ASO-4.4.PS.L=0.01±0.0007; ASO-6.1.PO-1.O=0.05±0.004) but not considered equivalent due to the confidence intervals [ASO-6.1.PO-1.O/ASO-4.4.PS.L Emax ratio: =−9.1 (Lower confidence limit=−224; Upper confidence limit=205)].\nAngelman syndrome induced pluripotent stem cells derived neurons Angelman syndrome iPS cells (AG1-0 iPSCs) (ECN001, Kerafast, Boston, Mass.) were co-cultured on irradiated murine embryonic fibroblasts in human embryonic stem cell medium [DMEM/F12 (11330-057, Gibco Biosciences, Dublin, Ireland), 20% Knockout Serum Replacement (10828-028, Thermo Fisher Scientific), 1× Non-essential amino acids, 2 mM L-glutamine, […] 2-Mercaptoethanol, and 4 μg/mL basic Fibroblast Growth Factor]. For the first passage, AG1-0 cells were passaged according to the product manual for PluriSTEM Human ES/iPS Medium (SCM130, Millipore Sigma, Burlington, Mass.), which is feeder-free and utilizes Dispase II (SCM133, Millipore Sigma) to dissociate cells. Matrigel™ hESC-qualified Matrix (354277, Corning BD Biosciences, Corning, N.Y.) was used as an extracellular matrix. At the second passage, the matrix was switched to vitronectin (CC130, Millipore Sigma). During subsequent passages, areas of differentiation were manually removed until differentiated cells represented approximately <5% of the colonies. After four subsequent passages, AG1-0 cells were differentiated using the Millipore ES/iPS Neurogenesis Kit (SCR603, SCM110, and SCM111) but lacking vitronectin as an extracellular matrix. The initial passage was performed with EZ-LiFT (SCM139, Millipore Sigma) to obtain high quality iPS cells. Neural progenitor cells were frozen at stage zero (P0) and subsequently thawed for differentiation. Differentiation was performed on sterile culture plates coated with poly-D-lysine (10 μg/mL) and laminin [10 μg/mL (23017-015, Gibco) in differentiation medium (SCM111) for 10 days of differentiation. […]", "data": [{"substance": "A^L*G^L*A^L*a*t*g*g*c*a*c*a*t*c*t*5mC^L*T^L*T^L*G^L (NNNATGGCACATCTNNNN; LNA gapmer, PS, 5-methylcytosine, chemistry not fully specified) [ASO-4.4.PS.L]", "values": [{"measurement": "fold more potent than ASO-6.1.PO-1.O", "result": "approximately 2.7 fold"}, {"measurement": "Emax, normalized UBE3A-AS RNA level at 30 μM", "result": "0.01±0.0007"}, {"measurement": "IC50", "result": 437, "unit": "nM"}]}, {"substance": "C^O*U^O*G^O*G^O-t*g*t*c*a*a*c*a*a*g-C^O*C^O*A^O*A^o [ASO-6.1.PO-1.O]", "values": [{"measurement": "Emax, normalized UBE3A-AS RNA level at 30 μM", "result": "0.05±0.004"}, {"measurement": "ASO-6.1.PO-1.O/ASO-4.4.PS.L Emax ratio", "setting": "equivalence test", "result": "−9.1"}, {"measurement": "ASO-6.1.PO-1.O/ASO-4.4.PS.L IC50 ratio", "setting": "equivalence test", "result": 0.96}, {"measurement": "IC50", "result": 1220, "unit": "nM"}]}]}
